Where a chain is given by its changes, count along the chain named.
Assays:
[1] = molecular target: T1, Dahl S Dear S44/M74 variant (Rattus norvegicus, UniProt D3ZGZ6, F4L); experiment: Radioligand binding to Dahl S Dear expressed in Cos1 cell membranes; conditions: for hormone binding, in words: Dahl S Dear transiently expressed in Cos1 cells; for Bmax / h (Hill coefficient): S44/M74 variant, mean ± s.e.m.
T1 construct: expressed in transfected cells; host or cells: Cos1 cells (membranes), pcDNA expression vector
T1 sequence (D3ZGZ6 1-127 F4L): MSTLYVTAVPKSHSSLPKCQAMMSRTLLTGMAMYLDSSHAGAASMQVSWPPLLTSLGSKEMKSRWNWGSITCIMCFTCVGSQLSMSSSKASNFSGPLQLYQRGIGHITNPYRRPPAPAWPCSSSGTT
Description: (§1) The Dahl S and Dahl R Dear cDNAs were subcloned directionally (5′ to 3′) into the pcDNA (+) expression vector (Invitrogen, Carlsbad, Calif.) and transiently expressed in Cos1 cells (ATCC). Cos1 cells were transfected with the expression vectors via lipofectin-mediated gene transfer and cell membranes were isolated 72 hr post-transfection for hormone binding. Rat kidney membranes were prepared essentially as described (42). COS-1 cell membranes were isolated as described (36). Briefly, cells were washed twice in phosphate-buffered saline and homogenized in 10-fold ice-cold buffer (0.25 M sucrose, 1 mM EDTA, 50 μg/ml aprotinin, 10 μg/ml leupeptin, 100 μM phenylmethylsulfonyl fluoride, 25 mM Imidazol/HCl, pH 7.4). The homogenate was centrifuged at 5,000 g for 15 min and the pellet was discarded. The supernatant was then centrifuged at 27,500 g for 30 min and the resulting pellet was washed twice in ice-cold suspension buffer (5 mM MgCl2, 0.2 mM EDTA, 50 mM Hepes, pH 7.4). The final pellet was resuspended into the appropriate assay buffer and quickly frozen in liquid nitrogen. The membrane preparations were store at −80° C. until use. Protein concentrations of the membranes were determined by BCA protein assay kit (PIERCE).
(§2) Binding of [^125I]Tyr^4-angiotensin II and [^125I]Tyr^13-endothelin-1 to COS-1 membranes was performed by a rapid filtration method (32, 50). Briefly, [^125I]Tyr^4-angiotensin II ([…]) or [^125I]Tyr^13-endothelin-1 (0.045˜1.46 nM) was incubated with membranes (100 μg) for 20 min at 37° C. in 100 μl buffer A (5 mM MgCl2, 0.2 mM EDTA, 10 mg/ml BSA, 10 mM Hepes, pH7.4). Binding reactions were terminated by the addition of 1 ml ice-cold buffer A and immediately filtered through a Whatman GF/C filter (presoaked overnight at 4° C. in 10 mg/ml BSA) and subsequently washed with 15 ml ice-cold buffer A. Specific binding was determined as the difference between the total radioactivity bound to membranes and the radioactivity bound to blanks containing 1 μM AngII or 1 μM ET-1. The dissociation constant (Kd) and maximum ligand-binding sites (Bmax) were determined using Hill plot analysis (55). Hill coefficient values (h) were calculated from the relationship ln [B/(Bmax−B)]=h ln [free Radioligand]−ln Kd. An F test (P<0.05) was used to determine whether the saturation binding curves best fitted one or two independent binding sites. The data were best fit by two affinity states determined by Scatchard plot analysis; KH and KL designate the Kd for high- and low-affinity states of the receptor, respectively (44). Most results are expressed as the mean±SE (standard error) from three to five independent experiments.

[2] = molecular target: T2, Dahl R Dear S44P/M74T variant (Rattus norvegicus, UniProt D3ZGZ6, F4L/M74T/S44P); experiment: Radioligand binding to Dahl R Dear expressed in Cos1 cell membranes; conditions: for hormone binding (direct radioligand binding), in words: Dahl R Dear transiently expressed in Cos1 cells
T2 construct: expressed in transfected cells; host or cells: Cos1 cells (membranes), pcDNA expression vector
T2 sequence (D3ZGZ6 1-127 F4L/S44P/M74T): T1 sequence (D3ZGZ6 1-127 F4L) with S44P, M74T
Description: as §1, §2

[3] = molecular target: T1, Dahl S Dear S44/M74 variant; experiment: West-western blot of kidney and Cos1 cell membranes (labeled ligand on protein blot); type: binding; conditions: Dahl S kidney membranes (Kid-S) and Cos1-S membranes
Description: (§3) A polyclonal rabbit antipeptide antibody raised against the synthetic peptide P51LLTSLGSKE60 (SEQ. ID. NO. 7) was utilized for western blot analysis (1). Plasma membranes (40 μg protein/lane) were subjected to 12.5% SDS-PAGE and the separated proteins electro-transferred onto PVDF membranes which were incubated with blocking buffer (0.3% Tween-20, 5% non-fat milk, 137 mM NaCl, 2.7 mM KCl, 8.1 mM Na2HPO4, and 1.5 mM KH2PO4, pH7.4) for 2 hr at room temperature, and then incubated with primary antibody (1:500) for 16 hr at 4° C. The PVDF membranes were then sequentially incubated with biotinylated goat anti-rabbit IgG followed by immunostaining with horseradish peroxidase-linked streptavidin. To confirm the interaction between Dear and ligands, we performed west-western blot analysis (62). Briefly, protein blots of kidney and COS-1 cell membranes were incubated with radioligands (0.5 μCi in 10 ml) in buffer A at 37° C. for 16 hr. PVDF membranes were then washed three times for 15 min with buffer A at 37° C. and exposed to X-ray film at −80° C. for 1-3 days.

[4] = molecular target: T2, Dahl R Dear S44P/M74T variant; experiment: as above; type: binding; conditions: Dahl R kidney membranes (Kid-R) and Cos1-R membranes
Description: as §3

mouse Dear = molecular target: T3, mouse Dear (Mus musculus, UniProt Q2QKR2); experiment: Ligand binding to mouse Dear expressed in Cos-1 cells; conditions: mouse receptor polypeptide, data not shown
T3 construct: The mouse receptor polypeptide contains 127 amino acids showing 78 percent homology with the rat receptor; expressed in transfected cells; host or cells: Cos-1 cells (membranes)
T3 sequence (Q2QKR2 1-127): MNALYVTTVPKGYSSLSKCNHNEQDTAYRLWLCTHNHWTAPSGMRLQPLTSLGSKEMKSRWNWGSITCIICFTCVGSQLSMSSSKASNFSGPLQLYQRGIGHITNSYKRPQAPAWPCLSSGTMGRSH
Description: Mouse Dear cDNA was obtained by RT-PCR from C57BL/6 mouse kidney PolyA^+ RNA (forward primer, 5′-[…]-3′ (SEQ. ID. NO. 13); reverse primer, 5′-[…]-3′(SEQ. ID. NO. 14)), subcloned into the PT-vector system (Clontech, Palo Alto, Calif.) and then sequenced (GenBank accession no. DQ009865). RNA blot analysis was done as described (1) using PolyA^+ RNA (3 μg), γ-^32P end labeled anti-sense mouse Dear oligonucleotide (5′-[…]-3′(SEQ. ID. NO. 15)) as probe. Receptor expression studies, ^125I-ET-1-1 and ^125I-AngII binding to membranes were done as described (2).

[5] = [125I]Tyr13-Endothelin I, S44P/M74T variant, mean ± s.e.m.

hormone binding, in words [1]	Bmax ([1]; [125I]Tyr4-Angiotensin II, Cos1 membranes)	h (Hill coefficient) ([1]; [125I]Tyr4-Angiotensin II)	hormone binding (direct radioligand binding), in words [2]	Bmax ([2]; [125I]Tyr4-Angiotensin II, S44P/M74T variant, Cos1 membranes)	binding in west-western blot analysis [3]	binding in west-western blot analysis [4]	increased affinity for ET-1, Dahl S variant compared to Dahl R variant ([1]; KH, S44/M74 vs Dahl R variant)	Bmax ([1]; [125I]Tyr13-Endothelin I)	h (Hill coefficient) ([1]; [125I]Tyr13-Endothelin I)	ligand binding, in words (mouse Dear)	Bmax [2, 5]	h (Hill coefficient) [2, 5]	Compound
binding both ET-1 and AngII	23.6 ± 0.92 pmol/mg membrane protein	2.63 ± 0.25	do not exhibit AngII binding	no binding	detects binding	binding only to Dahl S kidney membranes	–	–	–	–	–	–	CC[C@H](C)[C@H](NC(=O)[C@H](Cc1ccc(O)c(I)c1)NC(=O)[C@@H](NC(=O)[C@H](CCCNC(=N)N)NC(=O)[C@@H](N)CC(=O)O)C(C)C)C(=O)N[C@@H](Cc1c[nH]cn1)C(=O)N1CCC[C@H]1C(=O)N[C@@H](Cc1ccccc1)C(=O)O [[^125I]Tyr^4-Angiotensin II]
binding both ET-1 and AngII	–	–	exhibit normal ET-1 binding	–	reveals binding	reveals binding	3 fold	26.25 ± 1.29 pmol/mg membrane protein	1.41 ± 0.12	binds solely ET-1	20.21 ± 1.59 pmol/mg membrane protein	1.45 ± 0.09	CC[C@H](C)[C@H](NC(=O)[C@H](CC(=O)O)NC(=O)[C@H](CC(C)C)NC(=O)[C@H](Cc1c[nH]cn1)NC(=O)[C@@H]1CSSC[C@H](N)C(=O)N[C@@H](CO)C(=O)N[C@H]2CSSC[C@H](NC(=O)[C@H](CCC(=O)O)NC(=O)[C@H](CCCCN)NC(=O)[C@H](CC(=O)O)NC(=O)[C@H](CCSC)NC(=O)[C@H](CC(C)C)NC(=O)[C@H](CO)NC(=O)[C@H](CO)NC2=O)C(=O)N[C@@H](C(C)C)C(=O)N[C@@H](Cc2ccc(O)c(I)c2)C(=O)N[C@@H](Cc2ccccc2)C(=O)N1)C(=O)N[C@H](C(=O)N[C@@H](Cc1c[nH]c2ccccc12)C(=O)O)[C@@H](C)CC [[^125I]Tyr^13-Endothelin I]

— US7919093B2, “Roles for dual endothelin-1/angiotensin II receptor (Dear) in hypertension and angiogenesis” (Trustees of Boston University, priority 2004, dated 2011)
